Source: ChEMBL document CHEMBL1201862, “PubChem BioAssay data set” (2004)
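Exposure lasted 48 hours, with cells grown in 96-well plates and compounds tested at five concentrations. GI50 = concentration required for 50% inhibition of growth.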 The source made the active and inactive calls. Cut-off read from the data, not from the text of the source: active = GI50 up to about 1.1 µM and inactive = higher.

What was measured:
Experiment in all cases: DTP human tumour cell line panel, 48 h
OVCAR-3 = test system: OVCAR-3
KM12 = test system: KM12
OVCAR-5 = test system: OVCAR-5
SNB-19 = test system: SNB-19
HL-60 = test system: HL-60
SNB-75 = test system: SNB-75
NCI-H522 = test system: NCI-H522
CCRF-CEM = test system: CCRF-CEM
ACHN = test system: ACHN
SR = test system: SR
EKVX = test system: EKVX
M19-MEL = test system: M19-MEL
786-0 = test system: 786-0
XF498 = test system: XF498
DLD-1 = test system: DLD-1
OVCAR-8 = test system: OVCAR-8
SF-295 = test system: SF-295
RXF 393 = test system: RXF 393
SNB-78 = test system: SNB-78
CAKI-1 = test system: CAKI-1
A498 = test system: A498
NCI-H460 = test system: NCI-H460
UACC-257 = test system: UACC-257
KM-20L2 = test system: KM-20L2
SF-539 = test system: SF-539
HCC 2998 = test system: HCC 2998
HT-29 = test system: HT-29
SK-MEL-28 = test system: SK-MEL-28
K562 = test system: K562
NCI-H23 = test system: NCI-H23
COLO 205 = test system: COLO 205
OVCAR-4 = test system: OVCAR-4
SN12C = test system: SN12C
Malme-3M = test system: Malme-3M
MOLT-4 = test system: MOLT-4
TK-10 = test system: TK-10
M14 = test system: M14
U-251 = test system: U-251
UO-31 = test system: UO-31
NCI-H226 = test system: NCI-H226
A549 = test system: A549
RPMI-8226 = test system: RPMI-8226
SF-268 = test system: SF-268
DMS-114 = test system: DMS-114
UACC-62 = test system: UACC-62
SK-MEL-5 = test system: SK-MEL-5
HCT-15 = test system: HCT-15
LXFL 529 = test system: LXFL 529
DMS-273 = test system: DMS-273
IGROV-1 = test system: IGROV-1
HOP-18 = test system: HOP-18
SW-620 = test system: SW-620
HCT-116 = test system: HCT-116
SK-OV-3 = test system: SK-OV-3
SK-MEL-2 = test system: SK-MEL-2
HOP-62 = test system: HOP-62

With `COC12C=CC(CC1)c1c(O)ccc(O)c12` (stereo unspecified) as the molecule, how does the GI50 (OVCAR-3) read?
Its GI50 is 21.8 µM (inactive).

And the GI50 (KM12)?
The GI50 was > 95.1 µM (inactive).

And the GI50 (OVCAR-5)?
Its GI50 is > 100 µM (inactive).

What about the GI50 (SNB-19) of the same molecule?
Its GI50 is > 70.6 µM (inactive).

What about the GI50 (HL-60) of the same molecule?
The GI50 was 2.39 µM (inactive).

What about the GI50 (SNB-75) of the same molecule?
Its GI50 is 53.7 µM (inactive).

And the GI50 (NCI-H522)?
Its GI50 is 16.8 µM (inactive).

What about the GI50 (CCRF-CEM) of the same molecule?
Its GI50 is 20.6 µM (inactive).

And the GI50 (ACHN)?
The GI50 was 39.3 µM (inactive).

What about the GI50 (SR) of the same molecule?
The GI50 was 5.6 µM (inactive).

And the GI50 (EKVX)?
Its GI50 is > 66.2 µM (inactive).

What about the GI50 (M19-MEL) of the same molecule?
Its GI50 is 22.5 µM (inactive).

What about the GI50 (786-0) of the same molecule?
The GI50 was > 64.9 µM (inactive).

And the GI50 (XF498)?
The GI50 was 19.7 µM (inactive).

What about the GI50 (DLD-1) of the same molecule?
The GI50 was 50.4 µM (inactive).

What about the GI50 (OVCAR-8) of the same molecule?
Its GI50 is 33 µM (inactive).

And the GI50 (SF-295)?
The GI50 was > 90.8 µM (inactive).

And the GI50 (RXF 393)?
Its GI50 is > 79.6 µM (inactive).

And the GI50 (SNB-78)?
The GI50 was 49.2 µM (inactive).

And the GI50 (CAKI-1)?
Its GI50 is > 80.9 µM (inactive).

And the GI50 (A498)?
Its GI50 is > 100 µM (inactive).

And the GI50 (NCI-H460)?
The GI50 was 52.8 µM (inactive).

And the GI50 (UACC-257)?
Its GI50 is > 84.9 µM (inactive).

And the GI50 (KM-20L2)?
Its GI50 is 82.8 µM (inactive).

What about the GI50 (SF-539) of the same molecule?
The GI50 was > 100 µM (inactive).

What about the GI50 (HCC 2998) of the same molecule?
Its GI50 is 99.3 µM (inactive).

What about the GI50 (HT-29) of the same molecule?
Its GI50 is 64.9 µM (inactive).

And the GI50 (SK-MEL-28)?
The GI50 was 87.5 µM (inactive).

What about the GI50 (K562) of the same molecule?
The GI50 was 22.6 µM (inactive).

What about the GI50 (NCI-H23) of the same molecule?
Its GI50 is > 86.1 µM (inactive).

What about the GI50 (COLO 205) of the same molecule?
Its GI50 is 22.6 µM (inactive).

And the GI50 (OVCAR-4)?
Its GI50 is 19.6 µM (inactive).

And the GI50 (SN12C)?
The GI50 was 59.3 µM (inactive).

And the GI50 (Malme-3M)?
The GI50 was > 51.5 µM (inactive).

And the GI50 (MOLT-4)?
Its GI50 is 22.8 µM (inactive).

And the GI50 (TK-10)?
Its GI50 is > 49.7 µM (inactive).

What about the GI50 (M14) of the same molecule?
The GI50 was 57.7 µM (inactive).

What about the GI50 (U-251) of the same molecule?
Its GI50 is 38.9 µM (inactive).

And the GI50 (UO-31)?
Its GI50 is > 80.7 µM (inactive).

What about the GI50 (NCI-H226) of the same molecule?
Its GI50 is 39.1 µM (inactive).

And the GI50 (A549)?
Its GI50 is > 92.5 µM (inactive).

And the GI50 (RPMI-8226)?
Its GI50 is 50.8 µM (inactive).

And the GI50 (SF-268)?
The GI50 was > 31.6 µM (inactive).

And the GI50 (DMS-114)?
Its GI50 is 47.1 µM (inactive).

What about the GI50 (UACC-62) of the same molecule?
Its GI50 is 27.3 µM (inactive).

And the GI50 (SK-MEL-5)?
Its GI50 is 45 µM (inactive).

And the GI50 (HCT-15)?
The GI50 was 29.7 µM.

And the GI50 (LXFL 529)?
The GI50 was 25.4 µM (inactive).

What about the GI50 (DMS-273) of the same molecule?
The GI50 was 46 µM (inactive).

And the GI50 (IGROV-1)?
Its GI50 is > 100 µM (inactive).

And the GI50 (HOP-18)?
The GI50 was > 100 µM (inactive).

What about the GI50 (SW-620) of the same molecule?
Its GI50 is 27.5 µM (inactive).

What about the GI50 (HCT-116) of the same molecule?
Its GI50 is 40.7 µM (inactive).

And the GI50 (SK-OV-3)?
The GI50 was > 100 µM (inactive).

What about the GI50 (SK-MEL-2) of the same molecule?
Its GI50 is 42.9 µM (inactive).

What about the GI50 (HOP-62) of the same molecule?
Its GI50 is > 100 µM (inactive).
